Patent US20240024280A1, “SENOTHERAPEUTIC SUBSTANCE” (BIONEXA S.R.L, priority 2020, published 2024)

Tested on: senescent MCF7 cells
Experiment: Senolytic activity on doxorubicin-induced senescent MCF7 cells (crystal violet cell survival)
Format: cell-based, human
Details: 72 h treatment; vitamin C and palmitic acid administered alone at the same doses investigated
Description: Briefly, senescence of MCF7 human mammary epithelium cells (human breast adenocarcinoma cells, ATCC® HTB-22™) was induced in vitro by treatment with doxorubicin (for 24 h), at a non-apoptotic concentration (200 nM), and subsequent cell recovery (in optimal culture medium, without treatments) for 10 days. The successful conversion to the senescent cell phenotype was confirmed by morphological changes (flattening and cell enlargement) and positivity for lysosomal beta-galactosidase (β-GAL). The SA-β-GAL (senescence-associated p-GAL) senescence assay was performed with the SA-β-Gal Staining Kit (Cell Signaling Technology, Inc., Danvers, MA). In this case, after fixation with […] for 15 min at room temperature, the senescent cells were quantified by calculating the percentage of SA-β-GAL positive cells (colored blue) present in culture, examining ≥200 cells per well with the phase contrast microscope EVOS XL Cell Imaging System (Thermo Fisher; objective, 40×). […] At the end of the treatments, cell survival was quantified by crystal violet staining. […] After further washing with water (3×), 100 μl of acetic acid (10%) were added per well and the absorbance (λ=590 nm) measured with a Synergy spectrophotometer (AHSI). […] Senolytic activity was expressed as % of senescent cells eliminated with respect to the control condition (DMSO). […]

SMILES | senolytic effects (in words)
O=C1O[C@H]([C@@H](O)CO)C(O)=C1O [vitamin C, L-Ascorbic Acid] | absence of significant senolytic effects
CCCCCCCCCCCCCCCC(=O)O [palmitic acid] | absence of significant senolytic effects
